Experimental data published in patent publication US10604554B2, “Double-acylated GLP-1 derivatives” (Novo Nordisk A/S, priority 2012, dated 2020).
Numbered stars: 1 amine (or outer) side, 2 acyl side, 3 side chain; on linkers, the order of the positions; unused ones are H or OH. Square brackets hold non-standard residues; d marks the D form. Side chains are listed from the residue outwards. Peptide text beside a SMILES is read from it. * marks the point of attachment. Decanoyl(10-(4-HOOC-PhO)) = O=C(O)c1ccc(OCCCCCCCCCC(=O)*)cc1; γGlu = O=C(O)[C@H](CCC(=O)[*:2])N[*:1]; εLys = N[C@@H](CCCCN[*:1])C(=O)[*:2]; AEEA = NCCOCCOCC(=O)O; Aib = CC(C)(N)C(=O)O

Experiments:
[1] = Pharmacokinetic (PK) study in minipig; conditions: male, Göttingen, in vivo, iv
Protocol: The purpose of this study is to determine the protraction in vivo of the GLP-1 derivatives after i.v. administration to minipigs, i.e. the prolongation of their time of action. This is done in a pharmacokinetic (PK) study, where the terminal half-life of the derivative in question is determined. By terminal half-life is generally meant the period of time it takes to halve a certain plasma concentration, measured after the initial distribution phase.
Study A: Male Göttingen minipigs were obtained from Ellegaard Göttingen Minipigs (Dalmose, Denmark) approximately 7-14 months of age and weighing from approximately 16-35 kg were used in the studies. The minipigs were housed individually and fed restrictedly once or twice daily with SDS minipig diet (Special Diets Services, Essex, UK). After at least 2 weeks of acclimatisation two permanent central venous catheters were implanted in vena cava caudalis or cranialis in each animal. The animals were allowed 1 week recovery after the surgery, and were then used for repeated pharmacokinetic studies with a suitable wash-out period between successive GLP-1 derivative dosings.
The animals were fasted for approximately 18 h before dosing and from 0 to 4 h after dosing, but had ad libitum access to water during the whole period.
The GLP-1 derivatives were dissolved in 50 mM sodium phosphate, 145 mM sodium chloride, 0.05% tween 80, pH 7.4 to a concentration of usually from 20-60 nmol/ml. […] Blood samples (for example 0.8 ml) were collected in EDTA buffer (8 mM) and then centrifuged at 4° C. and 1942 G for 10 minutes.
Study B: Male Göttingen minipigs were obtained from Ellegaard Göttingen Minipigs (Dalmose, Denmark) approximately 5 months of age and weighing from approximately 9 kg were used in the studies. The minipigs were housed in pens with straw as bedding, six together in each pen and fed restrictedly once or twice daily with Altromin 9023 minipig diet (Chr. Petersen A/S, DK-4100 Ringsted) or Standard SMP(E) minipig diet (Special Diet Services (SDS), UK). The pigs were used for repeated pharmacokinetic studies with a suitable wash-out period between successive GLP-1 derivative dosings.
The GLP-1 derivatives were dissolved in 50 mM sodium phosphate, 145 mM sodium chloride, 0.05% tween 80, pH 7.4 to a concentration of usually from 20-60 nmol/ml. Intravenous injections (the volume corresponding to usually 2 nmol/kg, for example 0.1 ml/kg) of the compounds were given as intravenous injections via a Venflon inserted in an ear vein, while they are placed unanaesthetised in a sling. The dose volume was 0.1 ml/kg, and blood was sampled at predefined time points for up till 17 days post dosing (samples was taken with syringe from a jugular vein).
Individual plasma concentration-time profiles were analyzed by a non-compartmental model in Phoenix WinNonLin ver. […] (Pharsight Inc., Mountain View, Calif., USA), and the resulting terminal half-lives (harmonic mean) determined.

[2] = Pharmacokinetic (PK) study in rat; conditions: male, Sprague Dawley, in vivo, iv, 6 nmol/kg
human GLP-1 receptor = target: T1, human GLP-1 receptor (Homo sapiens, UniProt P43220); assay: GLP-1 receptor binding (SPA, displacement of 125I-GLP-1)
T1 construct: expressed in transfected cells; host or cells: BHK cells, clone FCW467-12A/KZ10-1 (parent line BHKTS13), further transfected with CRE luciferase
How it was run: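 Tracer [125I]-GLP-1(7-36)NH2 at 0.06 nM final competed on hamster stably transfected cell membranes captured by WGA SPA beads; 120 min, 30 °C, scintillation count.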

[3] = Receptor binding affinity IC50 (high HSA), 2.0% HSA (high albumin)
[4] = Receptor binding affinity IC50 (low HSA), 0.001% HSA (low albumin)

T1 sequence (P43220 24-463): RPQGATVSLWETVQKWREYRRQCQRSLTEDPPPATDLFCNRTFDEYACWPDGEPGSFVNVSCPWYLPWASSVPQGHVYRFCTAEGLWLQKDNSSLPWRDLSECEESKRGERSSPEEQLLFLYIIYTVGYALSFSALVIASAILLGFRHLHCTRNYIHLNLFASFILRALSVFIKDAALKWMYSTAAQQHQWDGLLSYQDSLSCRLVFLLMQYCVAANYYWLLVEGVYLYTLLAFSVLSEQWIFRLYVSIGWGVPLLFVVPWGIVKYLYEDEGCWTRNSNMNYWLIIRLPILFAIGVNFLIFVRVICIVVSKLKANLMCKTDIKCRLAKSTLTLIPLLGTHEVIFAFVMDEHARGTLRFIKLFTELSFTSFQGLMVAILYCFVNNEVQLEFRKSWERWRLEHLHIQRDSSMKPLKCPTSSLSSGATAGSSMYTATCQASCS

Compound	half-life [1] [h]	half-life [2] [h]	IC50 (human GLP-1 receptor; [3]) [nM]	IC50 (human GLP-1 receptor; [4]) [nM]
CC[C@H](C)[C@H](NC(=O)[C@H](Cc1ccccc1)NC(=O)[C@H](CCC(=O)O)NC(=O)[C@H](CCCCNC(=O)[C@@H](N)CCCCNC(=O)COCCOCCNC(=O)COCCOCCNC(=O)CC[C@H](NC(=O)CCCCCCCCCCCOc1ccc(C(=O)O)cc1)C(=O)O)NC(=O)[C@H](C)NC(=O)[C@H](C)NC(=O)[C@H](CCC(N)=O)NC(=O)CNC(=O)[C@H](CCC(=O)O)NC(=O)[C@H](CC(C)C)NC(=O)[C@H](Cc1ccc(O)cc1)NC(=O)[C@H](CO)NC(=O)[C@H](CO)NC(=O)[C@@H](NC(=O)[C@H](CC(=O)O)NC(=O)[C@H](CO)NC(=O)[C@@H](NC(=O)[C@H](Cc1ccccc1)NC(=O)[C@@H](NC(=O)CNC(=O)[C@H](CCC(=O)O)NC(=O)C(C)(C)NC(=O)[C@@H](N)Cc1c[nH]cn1)[C@@H](C)O)[C@@H](C)O)C(C)C)C(=O)N[C@@H](C)C(=O)N[C@@H](Cc1c[nH]c2ccccc12)C(=O)N[C@@H](CC(C)C)C(=O)N[C@H](C(=O)N[C@@H](CCCNC(=N)N)C(=O)NCC(=O)N[C@@H](CCCNC(=N)N)C(=O)N[C@@H](CCCCNC(=O)[C@@H](N)CCCCNC(=O)COCCOCCNC(=O)COCCOCCNC(=O)CC[C@H](NC(=O)CCCCCCCCCCCOc1ccc(C(=O)O)cc1)C(=O)O)C(=O)O)C(C)C [Example 14, N^ε26-[(2S)-2-amino-6-[[2-[2-[2-[[2-[2-[2-[[(4S)-4-carboxy-4-[12-(4-carboxyphenoxy)dodecanoylamino]butanoyl]amino]ethoxy]ethoxy]acetyl]amino]ethoxy]ethoxy]acetyl]amino]hexanoyl], N^ε37-[(2S)-2-amino-6-[[2-[2-[2-[[2-[2-[2-[[(4S)-4-carboxy-4-[12-(4-carboxyphenoxy)dodecanoylamino]butanoyl]amino]ethoxy]ethoxy]acetyl]amino]ethoxy]ethoxy]acetyl]amino]hexanoyl]-[Aib^8,Arg^34, Lys^37]-GLP-1-(7-37)-peptide]	88	19	154	0.3
CC[C@H](C)[C@H](NC(=O)[C@H](Cc1ccccc1)NC(=O)[C@H](CCC(=O)O)NC(=O)[C@H](CCCCNC(=O)[C@@H](N)CCCCNC(=O)COCCOCCNC(=O)CC[C@H](NC(=O)CC[C@H](NC(=O)CCCCCCCCCCCOc1ccc(C(=O)O)cc1)C(=O)O)C(=O)O)NC(=O)[C@H](C)NC(=O)[C@H](C)NC(=O)[C@H](CCC(N)=O)NC(=O)CNC(=O)[C@H](CCC(=O)O)NC(=O)[C@H](CC(C)C)NC(=O)[C@H](Cc1ccc(O)cc1)NC(=O)[C@H](CO)NC(=O)[C@H](CO)NC(=O)[C@@H](NC(=O)[C@H](CC(=O)O)NC(=O)[C@H](CO)NC(=O)[C@@H](NC(=O)[C@H](Cc1ccccc1)NC(=O)[C@@H](NC(=O)CNC(=O)[C@H](CCC(=O)O)NC(=O)C(C)(C)NC(=O)[C@@H](N)Cc1c[nH]cn1)[C@@H](C)O)[C@@H](C)O)C(C)C)C(=O)N[C@@H](C)C(=O)N[C@@H](Cc1c[nH]c2ccccc12)C(=O)N[C@@H](CC(C)C)C(=O)N[C@H](C(=O)N[C@@H](CCCNC(=N)N)C(=O)NCC(=O)N[C@@H](CCCNC(=N)N)C(=O)N[C@@H](CCCCNC(=O)[C@@H](N)CCCCNC(=O)COCCOCCNC(=O)CC[C@H](NC(=O)CC[C@H](NC(=O)CCCCCCCCCCCOc1ccc(C(=O)O)cc1)C(=O)O)C(=O)O)C(=O)O)C(C)C [Example 15, N^ε26-[(2S)-2-amino-6-[[2-[2-[2-[[(4S)-4-carboxy-4-[[(4S)-4-carboxy-4-[12-(4-carboxyphenoxy)dodecanoylamino]butanoyl]amino]butanoyl]amino]ethoxy]ethoxy]acetyl]amino]hexanoyl], N^ε37-[(2S)-2-amino-6-[[2-[2-[2-[[(4S)-4-carboxy-4-[[(4S)-4-carboxy-4-[12-(4-carboxyphenoxy)dodecanoylamino]butanoyl]amino]butanoyl]amino]ethoxy]ethoxy]acetyl]amino]hexanoyl]-[Aib^8,Arg^34,Lys^37]-GLP-1-(7-37)-peptide]		20	303	0.35
CC[C@H](C)[C@H](NC(=O)[C@H](Cc1ccccc1)NC(=O)[C@H](CCC(=O)O)NC(=O)[C@H](CCCCNC(=O)[C@@H](N)CCCCNC(=O)CC[C@H](NC(=O)CC[C@H](NC(=O)CC[C@H](NC(=O)CCCCCCCCCCCOc1ccc(C(=O)O)cc1)C(=O)O)C(=O)O)C(=O)O)NC(=O)[C@H](C)NC(=O)[C@H](C)NC(=O)[C@H](CCC(N)=O)NC(=O)CNC(=O)[C@H](CCC(=O)O)NC(=O)[C@H](CC(C)C)NC(=O)[C@H](Cc1ccc(O)cc1)NC(=O)[C@H](CO)NC(=O)[C@H](CO)NC(=O)[C@@H](NC(=O)[C@H](CC(=O)O)NC(=O)[C@H](CO)NC(=O)[C@@H](NC(=O)[C@H](Cc1ccccc1)NC(=O)[C@@H](NC(=O)CNC(=O)[C@H](CCC(=O)O)NC(=O)C(C)(C)NC(=O)[C@@H](N)Cc1c[nH]cn1)[C@@H](C)O)[C@@H](C)O)C(C)C)C(=O)N[C@@H](C)C(=O)N[C@@H](Cc1c[nH]c2ccccc12)C(=O)N[C@@H](CC(C)C)C(=O)N[C@H](C(=O)N[C@@H](CCCNC(=N)N)C(=O)NCC(=O)N[C@@H](CCCNC(=N)N)C(=O)N[C@@H](CCCCNC(=O)[C@@H](N)CCCCNC(=O)CC[C@H](NC(=O)CC[C@H](NC(=O)CC[C@H](NC(=O)CCCCCCCCCCCOc1ccc(C(=O)O)cc1)C(=O)O)C(=O)O)C(=O)O)C(=O)O)C(C)C [Example 17, N^ε26-[(2S)-2-amino-6-[[(4S)-4-carboxy-4-[[(4S)-4-carboxy-4-[[(4S)-4-carboxy-4-[12-(4-carboxyphenoxy)dodecanoylamino]butanoyl]amino]butanoyl]amino]butanoyl]amino]hexanoyl], N^ε37-[(2S)-2-amino-6-[[(4S)-4-carboxy-4-[[(4S)-4-carboxy-4-[[(4S)-4-carboxy-4-[12-(4-carboxyphenoxy)dodecanoylamino]butanoyl]amino]butanoyl]amino]butanoyl]amino]hexanoyl]-[Aib^8,Arg^34,Lys^37]-GLP-1-(7-37)-peptide]	71	24	632	0.42
CC[C@H](C)[C@H](NC(=O)[C@H](Cc1ccccc1)NC(=O)[C@H](CCC(=O)O)NC(=O)[C@H](CCCCNC(=O)[C@@H](N)CCCCNC(=O)COCCOCCNC(=O)COCCOCCNC(=O)CC[C@H](NC(=O)CCCCCCCCCOc1ccc(C(=O)O)cc1)C(=O)O)NC(=O)[C@H](C)NC(=O)[C@H](C)NC(=O)[C@H](CCC(N)=O)NC(=O)[C@H](CCC(=O)O)NC(=O)[C@H](CCC(=O)O)NC(=O)[C@H](CC(C)C)NC(=O)[C@H](Cc1ccc(O)cc1)NC(=O)[C@H](CO)NC(=O)[C@H](CO)NC(=O)[C@@H](NC(=O)[C@H](CC(=O)O)NC(=O)[C@H](CO)NC(=O)[C@@H](NC(=O)[C@H](Cc1ccccc1)NC(=O)[C@@H](NC(=O)CNC(=O)[C@H](CCC(=O)O)NC(=O)C(C)(C)NC(=O)[C@@H](N)Cc1c[nH]cn1)[C@@H](C)O)[C@@H](C)O)C(C)C)C(=O)N[C@@H](C)C(=O)N[C@@H](Cc1c[nH]c2ccccc12)C(=O)N[C@@H](CC(C)C)C(=O)N[C@H](C(=O)N[C@@H](CCC(N)=O)C(=O)NCC(=O)N[C@@H](CCCNC(=N)N)C(=O)N[C@@H](CCCCNC(=O)[C@@H](N)CCCCNC(=O)COCCOCCNC(=O)COCCOCCNC(=O)CC[C@H](NC(=O)CCCCCCCCCOc1ccc(C(=O)O)cc1)C(=O)O)C(=O)O)C(C)C [Example 18] (H-H[Aib]EGTFTSDVSSYLEEQAAK([εLys-AEEA-AEEA-γGlu-Decanoyl(10-(4-HOOC-PhO))])EFIAWLVQGRK([εLys-AEEA-AEEA-γGlu-Decanoyl(10-(4-HOOC-PhO))])-OH; N-terminus and C-terminus assumed)	47	20	159	0.99
